According to patent US20230027361A1, “METTL3 MODULATORS” (priority 2019, published 2023):
Read-outs that look alike come from different tables or passages of the source.

Columns and labels:
METTL1/WDR4 = METTL1/WDR4 (Homo sapiens, UniProt Q9UBP6); test: METTL1 Assay (METTL1 biochemical assay)
Description: Assays were performed in a 25 μl-volume in 384-well V-bottom polypropylene microplates (Greiner Bio-One, cat. No. 781280) at ambient temperature. Optimized 1× assay buffer was 20 mM HEPES pH 7.5, 50 mM KCl, 250 μM MgCl2, 1 mM DTT, 0.01% Tween, 0.01% BSG, 0.004 U/μl RNAseOUT (cat. No. 10777019, ThermoFisher Scientific, Waltham, Mass.). For compound screening METTL1/WDR4 (final concentration, f.c.=6.25 nM) was added using a Multidrop Combi (ThermoFisher Scientific, Waltham, Mass.) and preincubated for 5 min. Reactions were started by adding 3′ biotinylated RNA ([…]-biotin) (f.c.=25 nM) and 3H-SAM (f.c.=60 nM) substrates. Reactions proceeded for 20 minutes and were quenched with excess non-radioactive SAM (f.c.=15 μM). The reactions were then transferred to streptavidin-coated flashplates and incubated for 2 hours at 25° C. Following two washing cycles with 0.1% Tween-20, the plates were sealed and read on a TopCount (PerkinElmer, Waltham, Mass.) plate-based scintillation counter. For determination of kinetic parameters, reaction times were optimized so that measurements were taken during the initial velocity phase of the reaction.

METTL3/METTL14 = METTL3/METTL14 (Homo sapiens, UniProt Q86U44); test: METTL3-14 Standard Enzyme Assay (METTL3 biochemical assay); conditions: METTL3 biochemical assay; read-out: METTL3 IC50
Description: Assays were performed in a 25 μl-volume in 384-well V-bottom polypropylene microplates (Greiner Bio-One, cat. No. 781280) at ambient temperature. Optimized 1× assay buffer was 20 mM HEPES pH 7.5, 50 mM KCl, 250 μM MgCl2, 1 mM DTT, 0.01% Tween, 0.01% BSG, 0.004 U/μl RNAseOUT (cat. No. 10777019, ThermoFisher Scientific, Waltham, Mass.). For compound screening METTL3/METTL14 (final concentration, f.c.=2.5 nM) was added using a Multidrop Combi (ThermoFisher Scientific, Waltham, Mass.) and preincubated for 5 min. Reactions were started by adding 3′ biotinylated RNA ([…]-biotin) (f.c.=100 nM) and 3H-SAM (f.c.=100 nM) substrates. Reactions proceeded for 30 minutes and were quenched with excess non-radioactive SAM (f.c.=15 μM). The reactions were then transferred to streptavidin-coated flashplates and incubated for 2 hours at 25° C. Following two washing cycles with 0.1% Tween-20, the plates were sealed and read on a TopCount (PerkinElmer, Waltham, Mass.) plate-based scintillation counter. For determination of kinetic parameters, reaction times were optimized so that measurements were taken during the initial velocity phase of the reaction.

PRMT5-MEP50 = PRMT5-MEP50 (Homo sapiens, UniProt O14744); test: PRMT5 Assay (PRMT5 biochemical assay); conditions: PRMT5 biochemical assay; read-out: PRMT5 IC50
Description: Assays were performed in a 25 μl-volume in 384-well V-bottom polypropylene microplates (Greiner Bio-One, cat. No. 781280) at ambient temperature. Optimized 1× assay buffer was 20 mM Tris-HCl pH 8.0, 1 mM DTT, […]. For compound screening PRMT5-MEP50 (final concentration, f.c.=2.5 nM) was added using a Multidrop Combi (ThermoFisher Scientific, Waltham, Mass.) and preincubated for 5 min. Reactions were started by adding 3′ biotinylated histone H4 peptide acetylated on serine 1 (Ac-[…]-Biotin) (f.c.=100 nM) and 3H-SAM (f.c.=250 nM) substrates. Reactions proceeded for 60 minutes and were quenched with excess non-radioactive SAM (f.c.=15 μM). The reactions were then transferred to streptavidin-coated flashplates and incubated for 2 hours at 25° C. Following two washing cycles with 0.1% Tween-20, the plates were sealed and read on a TopCount (PerkinElmer, Waltham, Mass.) plate-based scintillation counter. For determination of kinetic parameters, reaction times were optimized so that measurements were taken during the initial velocity phase of the reaction.

[1] = read-out: METTL1 IC50; METTL1 biochemical assay

Sequence of METTL3/METTL14 (Q86U44 whole entry, species assumed): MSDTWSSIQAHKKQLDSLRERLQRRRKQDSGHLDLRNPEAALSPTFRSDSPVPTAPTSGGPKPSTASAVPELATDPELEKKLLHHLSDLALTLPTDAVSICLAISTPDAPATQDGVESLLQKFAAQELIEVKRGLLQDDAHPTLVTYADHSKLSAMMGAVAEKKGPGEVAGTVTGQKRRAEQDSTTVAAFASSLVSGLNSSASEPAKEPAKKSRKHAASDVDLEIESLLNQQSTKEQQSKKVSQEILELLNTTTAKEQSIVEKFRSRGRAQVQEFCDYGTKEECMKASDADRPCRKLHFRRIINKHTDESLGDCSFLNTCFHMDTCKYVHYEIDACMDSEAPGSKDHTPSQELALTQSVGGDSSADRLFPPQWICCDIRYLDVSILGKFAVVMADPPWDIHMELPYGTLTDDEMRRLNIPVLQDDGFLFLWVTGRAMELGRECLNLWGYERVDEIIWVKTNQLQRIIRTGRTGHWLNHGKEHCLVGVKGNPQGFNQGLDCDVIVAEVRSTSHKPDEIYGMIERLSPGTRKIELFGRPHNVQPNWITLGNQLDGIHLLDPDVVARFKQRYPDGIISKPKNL
Sequence of METTL3/METTL14 (Q9HCE5 whole entry partner, species assumed): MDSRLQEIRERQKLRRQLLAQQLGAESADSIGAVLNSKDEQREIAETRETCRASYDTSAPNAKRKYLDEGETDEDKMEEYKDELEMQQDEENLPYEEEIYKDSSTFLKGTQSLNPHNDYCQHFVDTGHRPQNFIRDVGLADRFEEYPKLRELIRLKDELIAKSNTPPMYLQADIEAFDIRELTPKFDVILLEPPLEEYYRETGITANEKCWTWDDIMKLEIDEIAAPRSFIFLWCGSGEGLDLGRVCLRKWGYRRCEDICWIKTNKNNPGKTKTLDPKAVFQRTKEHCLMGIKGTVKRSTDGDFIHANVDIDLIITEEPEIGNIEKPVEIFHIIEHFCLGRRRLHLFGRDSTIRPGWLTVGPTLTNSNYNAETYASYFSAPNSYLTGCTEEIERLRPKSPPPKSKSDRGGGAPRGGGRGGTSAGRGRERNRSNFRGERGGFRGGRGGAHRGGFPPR
Sequence of PRMT5-MEP50 (O14744 whole entry): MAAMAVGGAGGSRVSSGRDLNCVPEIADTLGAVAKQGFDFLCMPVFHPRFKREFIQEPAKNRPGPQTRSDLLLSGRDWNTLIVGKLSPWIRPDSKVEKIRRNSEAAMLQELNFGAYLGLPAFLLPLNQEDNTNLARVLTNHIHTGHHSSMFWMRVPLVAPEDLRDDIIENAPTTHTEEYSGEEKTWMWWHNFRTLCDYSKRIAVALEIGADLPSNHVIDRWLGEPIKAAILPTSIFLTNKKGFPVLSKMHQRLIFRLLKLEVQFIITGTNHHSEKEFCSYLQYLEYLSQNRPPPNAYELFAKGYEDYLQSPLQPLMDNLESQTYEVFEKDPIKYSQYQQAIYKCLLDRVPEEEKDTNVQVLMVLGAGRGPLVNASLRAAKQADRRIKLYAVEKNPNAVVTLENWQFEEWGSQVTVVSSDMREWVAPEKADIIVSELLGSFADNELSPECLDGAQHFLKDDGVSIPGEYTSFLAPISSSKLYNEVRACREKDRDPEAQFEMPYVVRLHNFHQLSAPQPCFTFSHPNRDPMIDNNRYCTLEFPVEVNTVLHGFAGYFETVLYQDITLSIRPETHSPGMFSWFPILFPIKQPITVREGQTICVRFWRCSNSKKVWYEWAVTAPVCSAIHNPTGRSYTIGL
Sequence of PRMT5-MEP50 (Q9BQA1 whole entry partner): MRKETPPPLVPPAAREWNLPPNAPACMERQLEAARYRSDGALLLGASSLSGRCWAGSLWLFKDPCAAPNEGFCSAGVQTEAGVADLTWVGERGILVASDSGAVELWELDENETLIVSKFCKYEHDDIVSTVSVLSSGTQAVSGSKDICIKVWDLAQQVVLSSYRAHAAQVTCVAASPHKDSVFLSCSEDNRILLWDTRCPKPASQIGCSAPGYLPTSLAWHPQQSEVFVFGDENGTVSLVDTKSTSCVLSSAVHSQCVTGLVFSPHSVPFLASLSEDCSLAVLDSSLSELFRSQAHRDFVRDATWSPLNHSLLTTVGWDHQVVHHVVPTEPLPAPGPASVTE
Sequence of METTL1/WDR4 (Q9UBP6 whole entry, species assumed): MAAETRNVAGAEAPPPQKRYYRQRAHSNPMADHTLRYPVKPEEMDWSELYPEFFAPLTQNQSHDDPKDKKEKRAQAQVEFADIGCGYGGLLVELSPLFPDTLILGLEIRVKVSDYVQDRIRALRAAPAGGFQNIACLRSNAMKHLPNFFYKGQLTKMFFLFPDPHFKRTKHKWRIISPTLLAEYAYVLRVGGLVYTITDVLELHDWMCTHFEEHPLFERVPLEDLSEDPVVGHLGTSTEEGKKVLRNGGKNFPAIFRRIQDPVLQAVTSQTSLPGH
Sequence of METTL1/WDR4 (P57081 whole entry partner, species assumed): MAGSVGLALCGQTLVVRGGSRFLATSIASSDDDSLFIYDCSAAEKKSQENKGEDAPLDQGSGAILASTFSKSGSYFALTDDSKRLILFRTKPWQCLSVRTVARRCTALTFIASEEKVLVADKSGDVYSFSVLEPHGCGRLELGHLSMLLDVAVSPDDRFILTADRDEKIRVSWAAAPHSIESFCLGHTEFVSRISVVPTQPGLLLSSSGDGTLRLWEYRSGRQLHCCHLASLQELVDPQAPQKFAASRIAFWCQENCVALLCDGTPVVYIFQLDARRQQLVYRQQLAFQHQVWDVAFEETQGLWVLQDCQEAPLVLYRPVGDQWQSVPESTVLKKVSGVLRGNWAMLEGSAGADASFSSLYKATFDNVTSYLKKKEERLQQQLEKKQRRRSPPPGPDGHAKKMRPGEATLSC

Row | Compound | IC50 (METTL1/WDR4; [1]) [nM] | IC50 (METTL3/METTL14) [nM] | IC50 (PRMT5-MEP50) [nM] | IC50 (METTL1/WDR4; METTL1 biochemical assay; read-out: METTL1 IC50) [nM]
1 | Nc1ccc2ccc(OC[C@H]3O[C@H](n4ccc5c(N)ncnc54)[C@H](O)[C@@H]3O)cc2n1 [I-79] | > 1000 | > 1000 | 100 to 1000 | 
2 | Nc1ccc2ccc(OC[C@H]3O[C@@H](n4ccc5c(N)ncnc54)[C@H](O)[C@@H]3O)cc2n1 [I-80] | > 1000 | 10 to 100 | < 10 | 
3 | Nc1ncnc2c1ccn2[C@@H]1C[C@H](CCc2ccc3c(OCC4CC4)ccnc3c2)[C@@H](O)[C@H]1O [I-85] | > 1000 | > 1000 | < 10 | 
4 | Nc1ncnc2c1ccn2[C@@H]1C[C@H](CCc2ccc3c(OCc4ccccc4)ccnc3c2)[C@@H](O)[C@H]1O [I-86] | > 1000 | > 1000 | < 10 | 
5 | CNc1ccc2cc(F)c(CC[C@H]3C[C@@H](n4ccc5c(N)ncnc54)[C@H](O)[C@@H]3O)cc2n1 [I-87] | > 1000 | 10 to 100 | < 10 | 
6 | Nc1ncnc2c1ccn2[C@@H]1C[C@H](CCc2ccc3[nH]cnc3c2)[C@@H](O)[C@H]1O [I-88] | > 1000 | > 1000 | < 10 | 
7 | O[C@@H]1[C@@H](CCc2ccc3[nH]ncc3c2)C[C@@H](n2ccc3c(NCCc4ccccc4)ncnc32)[C@@H]1O [I-89] | > 1000 | > 1000 | 100 to 1000 | 
8 | Nc1ccc2ccc(OC[C@H]3C[C@@H](n4ccc5c(NCCc6ccccc6)ncnc54)[C@H](O)[C@@H]3O)cc2n1 [I-91] |  | > 1000 | < 10 | > 1000
9 | Nc1ncnc2c1ccn2[C@@H]1C[C@H](CCc2ccc3[nH]ccc3c2)[C@@H](O)[C@H]1O [I-92] | > 1000 | > 1000 | 100 to 1000 | 
10 | Nc1ncnc2c1ccn2[C@@H]1C[C@H](CCc2ccc3[nH]c(=O)[nH]c3c2)[C@@H](O)[C@H]1O [I-93] | > 1000 | > 1000 | 10 to 100 | 
11 | CN(C[C@H]1C[C@@H](n2ccc3c(N)ncnc32)[C@H](O)[C@@H]1O)c1ccc2ccc(N)nc2c1 [I-94] | > 1000 | > 1000 | < 10 | 
12 | NC(=O)Nc1cccc(CC[C@H]2C[C@@H](n3ccc4c(N)ncnc43)[C@H](O)[C@@H]2O)c1 [I-95] | > 1000 | > 1000 | 100 to 1000 | 
13 | Nc1ncnc2c1ccn2[C@@H]1C[C@H](CCc2cccc(NC(=O)C3CC3)c2)[C@@H](O)[C@H]1O [I-96] | > 1000 | > 1000 | 100 to 1000 | 
14 | Nc1ccc2cc(CC[C@H]3C[C@@H](n4ccc5c(NCCc6ccccc6)ncnc54)[C@H](O)[C@@H]3O)ccc2n1 [I-97] | > 1000 | > 1000 | 100 to 1000 | 
15 | CNC(=O)Nc1cccc(CC[C@H]2C[C@@H](n3ccc4c(N)ncnc43)[C@H](O)[C@@H]2O)c1 [I-99] | > 1000 | > 1000 | 100 to 1000 | 
16 | Nc1cc2cc(CC[C@H]3C[C@@H](n4ccc5c(N)ncnc54)[C@H](O)[C@@H]3O)ccc2cn1 [I-100] | > 1000 | > 1000 | 10 to 100 | 
17 | Nc1ncnc2c1ccn2[C@@H]1C[C@H](CCc2ccc3cc[nH]c3c2)[C@@H](O)[C@H]1O [I-101] | > 1000 | > 1000 | 100 to 1000 | 
18 | CCCNc1ncnc2c1ccn2[C@@H]1C[C@H](CCc2ccc3ccc(N)nc3c2)[C@@H](O)[C@H]1O [I-102] | > 1000 | > 1000 | < 10 | 
19 | Nc1ncnc2c1ccn2[C@@H]1C[C@H](CCc2ccc3cn[nH]c3c2)[C@@H](O)[C@H]1O [I-103] | > 1000 | > 1000 | 10 to 100 | 

Row | Compound | IC50 (METTL1/WDR4; [1]) [nM] | IC50 (METTL3/METTL14) [nM] | IC50 (PRMT5-MEP50) [nM] | IC50 (METTL1/WDR4; METTL1 biochemical assay; read-out: METTL1 IC50) [nM]
20 | Nc1ncnc2c1ccn2[C@@H]1C[C@H](CCc2ccc3scnc3c2)[C@@H](O)[C@H]1O [I-104] | > 1000 | > 1000 | < 10 | 
21 | Nc1ncnc2c1ccn2[C@@H]1C[C@H](CCc2ccc3ccc(NCCO)nc3c2)[C@@H](O)[C@H]1O [I-105] | > 1000 | 100 to 1000 | < 10 | 
22 | Nc1ncnc2c1ccn2[C@@H]1C[C@H](CCc2ccc3[nH]ncc3c2)[C@@H](O)[C@H]1O [I-106] | > 1000 | > 1000 | 100 to 1000 | 
23 | Nc1ccc2ccc(CC[C@H]3C[C@@H](n4cc(Br)c5c(N)ncnc54)[C@H](O)[C@@H]3O)cc2n1 [I-107] | > 1000 | 10 to 100 | < 10 | 
24 | Nc1ccc2ccc(CC[C@H]3C[C@@H](n4ccc5c(N)ncnc54)[C@H](O)[C@@H]3O)cc2c1 [I-108] | > 1000 | > 1000 | 100 to 1000 | 
25 | Nc1ccc2ccc(NC[C@H]3C[C@@H](n4ccc5c(N)ncnc54)[C@H](O)[C@@H]3O)cc2n1 [I-109] | > 1000 | > 1000 | 10 to 100 | 
26 | Nc1cccc2ccc(CC[C@H]3C[C@@H](n4ccc5c(N)ncnc54)[C@H](O)[C@@H]3O)cc12 [I-110] | > 1000 | > 1000 | 100 to 1000 | 
27 | Nc1ncnc2c1ccn2[C@@H]1C[C@H](CCc2ccc3cc(C#Cc4ccccc4)cnc3c2)[C@@H](O)[C@H]1O [I-112] | > 1000 | > 1000 | 10 to 100 | 
28 | Nc1ncnc2c1ccn2[C@@H]1C[C@H](CCc2cccc(=O)[nH]2)[C@@H](O)[C@H]1O [I-113] | > 1000 | > 1000 | 100 to 1000 | 
29 | COc1cccc(CC[C@H]2C[C@@H](n3ccc4c(N)ncnc43)[C@H](O)[C@@H]2O)n1 [I-114] | > 1000 | > 1000 | > 1000 | 
30 | CC(C)Nc1ccc2ccc(CC[C@H]3C[C@@H](n4ccc5c(N)ncnc54)[C@H](O)[C@@H]3O)cc2n1 [I-116] | > 1000 | 10 to 100 | < 10 | 
31 | Nc1ncnc2c1ccn2[C@@H]1C[C@H](CCc2cccnc2)[C@@H](O)[C@H]1O [I-117] | > 1000 | > 1000 | 10 to 100 | 
32 | Cc1nc(N)c2ccn([C@@H]3C[C@H](CCc4ccc5ccc(N)nc5c4)[C@@H](O)[C@H]3O)c2n1 [I-119] | > 1000 | > 1000 | < 10 | 
33 | Nc1ncnc2c1ccn2[C@@H]1C[C@H](CCc2ccc3ccc(NCc4ccccc4)nc3c2)[C@@H](O)[C@H]1O [I-121] | > 1000 | 100 to 1000 | < 10 | 
34 | Nc1ncnc2c1ccn2[C@@H]1C[C@H](CCc2ccc3ccc(Nc4ccccc4)nc3c2)[C@@H](O)[C@H]1O [I-122] | > 1000 | > 1000 | < 10 | 
35 | Nc1ccc2ccc(OC[C@H]3C[C@@H](n4ccc5c(N)ncnc54)[C@H](O)[C@@H]3O)cc2n1 [I-124] | > 1000 | 100 to 1000 | < 10 | 
36 | Nc1ncnc2c1ccn2[C@@H]1C[C@H](CCc2cnc3cccnc3c2)[C@@H](O)[C@H]1O [I-126] | > 1000 | > 1000 | < 10 | 
37 | Nc1ncnc2c1ccn2[C@@H]1C[C@H](CCc2ccc3cncnc3c2)[C@@H](O)[C@H]1O [I-127] | > 1000 | > 1000 | < 10 | 
38 | Nc1ncnc2c1ccn2[C@@H]1C[C@H](CCc2ccc3cccnc3n2)[C@@H](O)[C@H]1O [I-128] | > 1000 | > 1000 | < 10 | 
